Laboratory results reported in the Deep4Chem optical property database.

Experiment: solvent given as SMILES

`O=c1c2cccc3cccc(c32)c2nc3ccccc3n12` gave an emission maximum (in ClCCl) of 499 nm.
With `Cn1ncc2c3c(C#N)c4c5ccccc5n(C)c4nc3ccc21` the emission maximum (in CCOC(C)=O) was 478 nm.
In the case of `c1ccc(C2c3ccc4ccc5ccccc5c4c3-c3c2ccc2ccc4ccccc4c32)cc1`, the emission maximum (in ClCCl) is reported as 425 nm.
`COc1ccc(C2=Cc3ccccc3[Si]2(c2ccccc2)c2ccccc2)cc1` showed an emission maximum (in ClCCl) of 418 nm.
In the case of `COc1ccc(-c2csc(/C(C#N)=C/c3ccc(Cl)cc3)n2)cc1`, the emission maximum (in CC#N) is reported as 543 nm.
In the case of `N#Cc1ccc(-c2cnc3cccc(-c4ccccc4)n23)cc1`, the emission maximum (in ClCCl) is reported as 457 nm.
`c1ccc(-c2nc(-c3cccc4ccccc34)n3ccccc23)cc1` gave an emission maximum (in C1CCCCC1) of 478 nm, an emission maximum (in CC#N) of 480 nm and an emission maximum (in CO) of 475 nm. It also gave an emission maximum (in ClCCl) of 486 nm and an emission maximum (in O) of 475 nm.
With `c1cc2c3c4c5c(cccc5cc3c1)-c1cccn1B4n1cccc1-2` the emission maximum (in C1CCOC1) was 601 nm.
Work on `CN(C)CCNCc1c2ccccc2cc2ccccc12` yielded an emission maximum (in C1CCCCC1) of 388 nm, an emission maximum (in C1CCOC1) of 413 nm and an emission maximum (in CC#N) of 389 nm. For the same compound, the emission maximum (in CC(C)=O) was 387 nm, the emission maximum (in CCO) was 410 nm and the emission maximum (in CN(C)C=O) was 414 nm. For the same compound, the emission maximum (in CO) was 388 nm and the emission maximum (in ClC(Cl)Cl) was 417 nm.
In the case of `Cc1ccc(C2=C3C=CC([Te]c4ccccc4)=[N+]3[B-](F)(F)n3c([Te]c4ccccc4)ccc32)cc1`, the emission maximum (in C1CCOC1) is reported as 659 nm.
In the case of `COc1cc(OC)cc(C2=[O+][B-](F)(F)OC(c3ccccc3)=C2)c1`, the emission maximum (in CC#N) is reported as 602.29 nm, the emission maximum (in CC(C)=O) is reported as 590.78 nm and the emission maximum (in CCCCCC) is reported as 446.17 nm. It also gave an emission maximum (in Cc1ccccc1) of 505.51 nm and an emission maximum (in ClCCl) of 554 nm.
For `COc1c2ccccc2c(OC)c2c1c1ccc(F)cc1n2C`, the emission maximum (in C1CCCCC1) was 404 nm, the emission maximum (in CC#N) was 413 nm and the emission maximum (in CO) was 410 nm. The emission maximum (in ClCCl) was 411 nm.
For `Cc1cc(C)c(C)c(-c2ccc3cc(C)c(=O)oc3c2)c1C`, the emission maximum (in C1CCCCC1) was 383 nm, the emission maximum (in CC#N) was 388 nm and the emission maximum (in CO) was 394 nm.
For `CC[N+]1(CC)CN2C(=N1)C(C(=O)O)=Cc1cc(C)ccc12`, the emission maximum (in O) was 469 nm.
In the case of `Cc1cc(O)c(C(C)C)cc1/N=C/c1ccc(O)cc1`, the emission maximum (in C1CCCCC1) is reported as 400 nm, the emission maximum (in C1CCOC1) is reported as 406 nm and the emission maximum (in C1COCCO1) is reported as 405 nm. It also gave an emission maximum (in CC#N) of 411 nm, an emission maximum (in CC(C)(C)O) of 410 nm and an emission maximum (in CC(C)O) of 412 nm. It also gave an emission maximum (in CCCCCC) of 399 nm, an emission maximum (in CCCCO) of 414 nm and an emission maximum (in CCO) of 414 nm. For the same compound, the emission maximum (in CCOC(C)=O) was 405 nm, the emission maximum (in CN(C)C=O) was 409 nm and the emission maximum (in CO) was 416 nm. The emission maximum (in CS(C)=O) was 415 nm, the emission maximum (in ClC(Cl)Cl) was 401 nm and the emission maximum (in ClCCl) was 412 nm. It also gave an emission maximum (in O) of 452 nm and an emission maximum (in OCCO) of 421 nm.
In the case of `COc1ccc2c(c1)c1ccccc1n2-c1nc2ccccc2nc1-n1c2ccccc2c2cc(OC)ccc21`, the emission maximum (in C1CCOC1) is reported as 588.86 nm, the emission maximum (in CCCCCC) is reported as 508.97 nm and the emission maximum (in Cc1ccccc1) is reported as 560 nm.
With `CC1=C(C#Cc2ccc(B(c3c(C)cc(C)cc3C)c3c(C)cc(C)cc3C)cc2)C(C)=[N+]2C1=C(c1ccccc1)c1c(C)c(C#Cc3ccc(B(c4c(C)cc(C)cc4C)c4c(C)cc(C)cc4C)cc3)c(C)n1[B-]2(F)F` the emission maximum (in ClCCl) was 602 nm.
`COc1ccc(-c2cc(-c3ccc(OC)cc3)c3c(N)nc(N4CCCC4)c(C#N)c3n2)cc1` gave an emission maximum (in CC#N) of 516 nm, an emission maximum (in CC(C)=O) of 513 nm and an emission maximum (in CC(C)O) of 507 nm. For the same compound, the emission maximum (in CO) was 515 nm, the emission maximum (in ClC(Cl)Cl) was 500 nm and the emission maximum (in ClCCl) was 506 nm. It also gave an emission maximum (in c1ccccc1) of 502 nm.
Compound `O=C1c2ccc(-c3ccc(N(c4ccccc4)c4ccccc4)cc3)cc2C(=O)c2ccc(-c3ccc(N(c4ccccc4)c4ccccc4)cc3)cc21` has an emission maximum (in Cc1ccccc1) of 597 nm and an emission maximum (in c1ccc2c(c1)c1ccccc1n2-c1ccc(-c2ccc(-n3c4ccccc4c4ccccc43)cc2)cc1) of 594 nm.
`CC(C)(C)NC(=O)c1ccc(-c2ccc(N3c4ccccc4Oc4ccccc43)cc2)c2ccc3c4ccc(F)cc4c4cc(F)ccc4c3c12` showed an emission maximum (in ClCCl) of 573 nm.
Compound `CCCCOc1ccc(-c2oc3cc4n(c3c2-c2ccc(OCCCC)cc2)[B-](F)(F)[N+]2=Cc3cc5oc(-c6ccc(OCCCC)cc6)c(-c6ccc(OCCCC)cc6)c5n3[B-](F)(F)[N+]2=C4)cc1` has an emission maximum (in C1CCOC1) of 638 nm, an emission maximum (in CN(C)C=O) of 644 nm and an emission maximum (in CS(C)=O) of 647 nm. The emission maximum (in Cc1ccccc1) was 641 nm, the emission maximum (in ClC(Cl)Cl) was 646 nm and the emission maximum (in ClCCl) was 646 nm.
Compound `CCOC(=O)c1sc(-c2ccc(-c3cc(C4CC4)c(C(=O)OCC)s3)s2)cc1C1CC1` has an emission maximum (in ClCCl) of 448 nm.
With `CN(C)c1ccc(C2=CC3=C(c4ccc([N+](=O)[O-])cc4)[C@H]4c5ccccc5[C@]3(S2)c2ccccc24)cc1` the emission maximum (in ClCCl) was 625 nm.
For `CCCCCCCCCCCCOc1cc(/C=C/c2ccc3c(c2)C(CC)(CC)c2cc(N4c5ccccc5Sc5ccccc54)ccc2-3)c(OCCCCCCCCCCCC)cc1/C=C/c1ccc2c(c1)C(CC)(CC)c1cc(N3c4ccccc4Sc4ccccc43)ccc1-2`, the emission maximum (in C1CCOC1) was 474 nm, the emission maximum (in CC#N) was 473 nm and the emission maximum (in CCCCCC) was 477 nm. It also gave an emission maximum (in Cc1ccccc1) of 468 nm and an emission maximum (in ClCCl) of 477 nm.
In the case of `Cc1ccc2c(c1)nnn2-c1c(C#N)c2c(N)ncnc2n1[C@H]1C[C@H](O)[C@@H](CO)O1`, the emission maximum (in CO) is reported as 419 nm.
With `CN(C)c1ccc(C#Cc2ccc(-c3cc(N(C)C)c4ccccc4c3)cc2)cc1` the emission maximum (in CC#N) was 497.02 nm, the emission maximum (in CCO) was 472.33 nm and the emission maximum (in ClCCl) was 457 nm.
With `COc1ccc(OC)c(-c2[nH]c(=O)n3c2-c2ccccc2C3=O)c1` the emission maximum (in CC#N) was 466 nm, the emission maximum (in CO) was 484 nm and the emission maximum (in ClCCl) was 462 nm.
`c1csc(-c2c3ccc(=[N+]4CCCCC4)cc-3oc3cc(N4CCCCC4)ccc23)c1` showed an emission maximum (in CCO) of 606 nm and an emission maximum (in ClCCl) of 603 nm.
Compound `C(#Cc1c(C#Cc2ccccc2)c(C#Cc2ccccc2)c(C#Cc2ccccc2)c(C#Cc2ccccc2)c1C#Cc1ccccc1)c1ccccc1` has an emission maximum (in ClCCl) of 452 nm.
Compound `COC(=O)c1ccc(/C=C2\C=C(c3ccc(OC)c(OC)c3)OC2=O)cc1` has an emission maximum (in C1COCCO1) of 522 nm.
`CCC1=C(C)C2=Cc3cccn3[B-](F)(F)[N+]2=C1C` showed an emission maximum (in C1CCCCC1) of 517.5 nm, an emission maximum (in CC(C)=O) of 516 nm and an emission maximum (in CCO) of 517 nm. It also gave an emission maximum (in CCOC(C)=O) of 516.5 nm, an emission maximum (in CO) of 516.5 nm and an emission maximum (in OCC(F)(F)F) of 515.5 nm.
In the case of `CCCCCc1c(C(=O)c2ccc3c4c(cccc24)-c2cccc4c2C3CC=C4)c2ccc3cccc4c5cccc6ccc1c(c65)c2c34` (stereo unspecified), the emission maximum (in ClCCl) is reported as 525 nm.
Compound `CCCCCCn1c2c(c3ccccc31)-c1c(c3ccccc3n1CCCCCC)-c1c(c3ccccc3n1CCCCCC)-c1c-2c2ccccc2n1CCCCCC` has an emission maximum (in ClCCl) of 352 nm.
`Cc1ccc(S(=O)(=O)/N=c2\oc3cccc4c5c(-c6ccccc6)oc6cccc(c(c2-c2ccccc2)c34)c65)cc1` gave an emission maximum (in ClC(Cl)Cl) of 560 nm.
In the case of `O=C([O-])c1ccc(C(=O)[O-])c(C2=c3cc4c5c(c3Oc3c2cc2c6c3CCCN6CCC2)CCC[N+]=5CCC4)c1`, the emission maximum (in CCO) is reported as 596 nm and the emission maximum (in O) is reported as 603 nm.
`c1ccc(-c2nc(-c3ccccc3)nc(-c3ccc(-n4c5ccccc5c5cc(-c6ccc7c(c6)c6ccccc6n7-c6ccccc6)ccc54)cc3)n2)cc1` gave an emission maximum (in O=P(c1ccccc1)(c1ccccc1)c1ccccc1Oc1ccccc1P(=O)(c1ccccc1)c1ccccc1) of 458.07 nm.
`CCCN1c2ccccc2Sc2cc(/C=C\c3cc(=O)oc4cc(O)ccc34)ccc21` showed an emission maximum (in ClC(Cl)Cl) of 631 nm.
For `[NH3+]C(Cc1c[nH]c2ccccc12)C(=O)[O-]` (stereo unspecified), the emission maximum (in O) was 350 nm.
For `CCN(CC)c1ccc2c(-c3ccccc3C(=O)O)c3c([o+]c2c1)/C(=C/c1nc(-c2ccccc2)n2ccccc12)CCC3`, the emission maximum (in ClCCl) was 746 nm.
With `O=[N+]([O-])c1ccc(C2=Nc3sc(-c4ccccc4)n[n+]3[B-](F)(F)O2)cc1` the emission maximum (in Cc1ccccc1) was 409 nm.
Compound `Clc1ccc(-c2nc(-c3ccccc3)c(N(c3ccccc3)c3ccccc3)s2)cc1` has an emission maximum (in ClC(Cl)Cl) of 474 nm.
`c1csc(-c2nc3ccccc3c3cc4ccccn4c23)c1` showed an emission maximum (in CS(C)=O) of 508 nm.
`O=C1/C(=C2\Sc3ccc(S(=O)(=O)O)cc3C2=O)Sc2ccc(S(=O)(=O)O)cc21` showed an emission maximum (in C1COCCO1) of 587 nm, an emission maximum (in CN(C)C=O) of 613 nm and an emission maximum (in CO) of 629 nm. It also gave an emission maximum (in CS(C)=O) of 629 nm and an emission maximum (in O) of 644 nm.
With `COc1cc2c(cc1-c1ccc(C)cc1)Cc1c3c(c4c(c1-2)-c1cc(OC)c(-c2ccc(C)cc2)cc1C4)C(=O)N(CCC(C)C)C3=O` the emission maximum (in C1CCOC1) was 476 nm.
Work on `c1cc(-c2ccc3c(c2)CCCO3)ccc1-c1ccc2c(c1)CCCO2` yielded an emission maximum (in C1CCCCC1) of 351 nm.
In the case of `F[B-]1(F)n2c(-c3ccccc3)cc(-c3ccccc3)c2C(c2ccccc2)=C2C(c3ccccc3)=CC(c3ccccc3)=[N+]21`, the emission maximum (in C1CCOC1) is reported as 597 nm.
In the case of `CC(C)(C)c1ccc(-c2nc3c4ccc(-c5ccccc5)cc4c4cc(-c5ccccc5)ccc4c3n2-c2ccc(C(C)(C)C)cc2)cc1`, the emission maximum (in C1CCOC1) is reported as 389 nm, the emission maximum (in C1COCCO1) is reported as 389 nm and the emission maximum (in CC#N) is reported as 391 nm. For the same compound, the emission maximum (in CCCCCC) was 385 nm, the emission maximum (in CCCCOCCCC) was 386 nm and the emission maximum (in CCN(CC)CC) was 386 nm. The emission maximum (in CCOC(C)=O) was 388 nm, the emission maximum (in CCOCC) was 386 nm and the emission maximum (in CN(C)C=O) was 392 nm. The emission maximum (in Cc1ccccc1) was 388 nm, the emission maximum (in ClC=C(Cl)Cl) was 389 nm and the emission maximum (in ClCCl) was 390 nm.
Compound `CCN(CC)c1ccc2c(c1)oc(=O)c1c(=O)oc3cc(Br)ccc3c12` has an emission maximum (in CS(C)=O) of 572 nm and an emission maximum (in ClCCl) of 540 nm.
Work on `CC(C)(C)NC(=O)c1cccc2ccc3c4cc(Cl)ccc4c4ccc(Cl)cc4c3c12` yielded an emission maximum (in ClCCl) of 407 nm.
`CC(C)(C)c1ccc2c(c1)c1cc(C(C)(C)C)ccc1n2-c1ccc(-n2c3ccc(C(C)(C)C)cc3c3cc(C(C)(C)C)ccc32)c(-c2nccnc2C#N)c1` gave an emission maximum (in Cc1ccccc1) of 503 nm and an emission maximum (in c1cc(-n2c3ccccc3c3ccccc32)cc(-n2c3ccccc3c3ccccc32)c1) of 493 nm.
With `CC/[NH+]=c1\cc2oc3cc(NCCC(=O)O)c4ccccc4c3nc-2cc1C` the emission maximum (in CCO) was 644 nm and the emission maximum (in O) was 652 nm.
Work on `CN(C)c1ccc(N2c3sc4ccccc4c3Sc3sc4ccccc4c32)cc1` yielded an emission maximum (in ClCCl) of 424 nm.
With `O=c1c2cc(F)c(N3CCCCC3)cc2oc2cc(N3CCCCC3)c(F)cc12` the emission maximum (in CCO) was 457 nm.
